# Key:
# Format in all cases: functional
# [1] = tested on: MT4; assay: Inhibitory concentration against HIV-1 in MT-4 cell line.; details: Homo sapiens, read-out: ID50 (the source's name)
# [2] = tested on: MT4; assay: Cytotoxic activity against MT-4 cell line; details: Homo sapiens, read-out: CD50 (the source's name)
# [3] = tested on: MT4; assay: Compound was tested for its inhibitory concentration against HIV-1 in MT-4 cell line; details: Homo sapiens, read-out: ID50 (the source's name)
structure (smiles),measurement,setting,value
Nc1ncnc2c1ncn2[C@@H]1COC(CO)S1 (some centres not stated),IC50,[1],> 100 µg/mL
same,CC50,[2],> 100 µg/mL
Cc1cn([C@@H]2COC(CO)S2)c(=O)[nH]c1=O (some centres not stated),IC50,[1],> 100 µg/mL
same,CC50,[2],> 100 µg/mL
O=c1ccn([C@@H]2COC(CO)S2)c(=O)[nH]1 (some centres not stated),IC50,[1],> 100 µg/mL
same,CC50,[2],> 100 µg/mL
Nc1ccn([C@@H]2COC(CO)S2)c(=O)n1 (some centres not stated),IC50,[1],> 100 µg/mL
same,CC50,[2],> 100 µg/mL
Nc1nc(=O)n([C@@H]2COC(CO)S2)cc1F (some centres not stated),IC50,[1],> 100 µg/mL
same,CC50,[2],> 100 µg/mL
Cc1cn(C2COC(CO)S2)c(=O)[nH]c1=O (configuration not stated),IC50,[1],> 100 µg/mL
same,CC50,[2],> 100 µg/mL
Nc1nc(=O)n(C2COC(CO)S2)cc1F (configuration not stated),IC50,[1],2.5 µg/mL
same,CC50,[2],> 100 µg/mL
Nc1ncnc2c1ncn2[C@@H]1CO[C@H](CO)S1,IC50,[1],50 µg/mL
same,CC50,[2],100 µg/mL
Nc1ncnc2c1ncn2[C@H]1CO[C@@H](CO)S1,IC50,[1],1.1 µg/mL
same,CC50,[2],100 µg/mL
O=c1ccn(C2COC(CO)S2)c(=O)[nH]1 (configuration not stated),IC50,[1],> 100 µg/mL
same,CC50,[2],> 100 µg/mL
Nc1nc(O)c2ncn(C3COC(CO)S3)c2n1 (configuration not stated),IC50,[1],> 100 µg/mL
same,CC50,[2],> 100 µg/mL
Nc1ncnc2c1ncn2C1COC(CO)S1 (configuration not stated),IC50,[1],2.1 µg/mL
same,CC50,[2],100 µg/mL
Nc1ccn(C2COC(CO)S2)c(=O)n1 (configuration not stated),IC50,[3],> 10 µg/mL
same,CC50,[2],10 µg/mL
O=c1[nH]cnc2c1ncn2[C@H]1CC[C@@H](CO)O1 [DIDANOSINE],IC50,[1],2.3 µg/mL
same,CC50,[2],100 µg/mL
Nc1ccn([C@@H]2CS[C@H](CO)O2)c(=O)n1 [LAMIVUDINE],IC50,[1],0.13 µg/mL
same,CC50,[2],> 100 µg/mL
Cc1cn([C@H]2C[C@H](N=[N+]=[N-])[C@@H](CO)O2)c(=O)[nH]c1=O [ZIDOVUDINE],IC50,[1],0.06 µg/mL
same,CC50,[2],> 1 µg/mL

# — ChEMBL document CHEMBL1126538, “A novel class of 1,3-oxathiolane nucleoside analogues having potent anti-HIV activity” (1993)
